The source of these data is publication PMC5562305, “Impact of novel palmitoylated prolactin-releasing peptide analogs on metabolic changes in mice with diet-induced obesity” (PLoS ONE, 2017).

One assay addresses T1, human NPFF2 (Homo sapiens, UniProt Q9Y5X5).
T1 construct: purchased Perkin Elmer; host or cells: CHO-K1 cell membranes
As to the kind of experiment: Competitive binding of 125I-1DMe to human NPFF2 receptor membranes. The settings on record: for % binding human PrRP31 (NPFF2): Ki relative to human PrRP31 = 100. On the procedure:
(§1) CHO-K1 cells expressing the GPR10 receptor (Thermo Fisher Scientific Inc., Waltham, MA, USA) were grown according to the manufacturer's instructions. Saturation and competitive binding experiments were performed according to the methods of Motulsky and Neubig. […] The experiments were performed on plated cells that were incubated for 60 min at 25°C. Non-specific binding was determined using 10^−5 M PrRP31. The binding assays involving human NPFF2 receptor membranes obtained from Perkin Elmer were performed as described in [18].
(§2) Data are presented as the means ± SEM. The competitive binding curves were plotted using GraphPad software (San Diego, CA, USA), and the best fits were compared for single-binding-site models (IC50 values were obtained from nonlinear regression analysis). Inhibition constants (Ki) were calculated from the IC50 values using the Cheng-Prusoff equation [23]. The concentration of the radioligand was 0.1 nM for cell membranes of CHO-K1 cells overexpressing NPFF2 and 0.03 nM for CHO-K1 cells overexpressing GPR10.

The nature of assay [1]: Cumulative food intake of DIO mice during 2-week SC treatment. The format is in vivo, C57BL/6 mice. Conditions: two weeks of SC treatment, 5 mg/kg twice a day, in words. An excerpt:
Inbred C57BL/6 male mice that were 3 weeks old were obtained from Charles River Laboratories (Sulzfeld, Germany). […] From 8 weeks of age, the mice were fed in house made high-fat (HF) diet to induce obesity. […] After twelve weeks of HF-diet feeding, two weeks of SC administration of lipidized PrRP analogs was initiated while the mice were kept on the HF diet. The following experimental groups were established: […] Food intake and BW were monitored daily during the dosing period.

Assay [2] addresses T2, GPR10 (Homo sapiens, UniProt P49683).
T2 sequence (P49683 1-370): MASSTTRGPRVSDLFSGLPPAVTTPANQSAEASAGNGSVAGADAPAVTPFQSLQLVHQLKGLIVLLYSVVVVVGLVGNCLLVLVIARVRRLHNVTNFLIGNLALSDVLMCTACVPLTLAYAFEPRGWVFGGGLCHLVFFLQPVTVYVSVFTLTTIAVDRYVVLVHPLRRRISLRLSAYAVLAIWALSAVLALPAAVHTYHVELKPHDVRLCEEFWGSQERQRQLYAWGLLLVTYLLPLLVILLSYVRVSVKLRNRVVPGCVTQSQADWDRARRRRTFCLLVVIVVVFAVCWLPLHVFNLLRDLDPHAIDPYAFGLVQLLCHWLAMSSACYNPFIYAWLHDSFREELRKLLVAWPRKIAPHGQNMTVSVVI
In words: Beta-lactamase-dependent FRET assay (bla reporter gene) in CHO-K1 cells overexpressing GPR10. The format is cell-based. Also noted: expressed in transfected cells; host or cells: CHO-K1. The protocol: CHO-K1 cells overexpressing GPR10 were plated at 40,000 cells/well in 128 μl of assay medium (DMEM containing 10% dialyzed FBS, 0.1 mM NEAA, 25 mM HEPES, 1% penicillin/streptomycin, and 2 mM L-glutamine) in a 96-well plate and were incubated for 20 h at 37°C/5% CO2. The assay was performed according to the manufacturer's protocol.
The results from the lactamase assay were analyzed using nonlinear regression by log agonist vs. response using GraphPad software.
Background: A reporter such as luciferase makes a cellular process visible.

For assay [3], the target named is T2, GPR10. As to the kind of experiment: Competitive binding of 125I-human PrRP31 to plated CHO-K1 cells expressing GPR10. The settings on record: for Ki: CHO-K1 cells, 0.03 nM radioligand, 60 min 25°C, Cheng-Prusoff, mean ± SEM of at least three experiments, SEM; for % binding human PrRP31 (GPR10): Ki relative to human PrRP31 = 100; for 125I-human PrRP31 binding to human GPR10, Ki: single experiments (replicates listed below each other). Also noted: host or cells: CHO-K1. The protocol: as §1, §2

Another assay relates to c-Fos. In words: Fos immunohistochemistry in mouse brain. The format is in vivo. Conditions: overnight fasted mice, 5 mg/kg SC, 90 min after injection, n = 4, vs saline. On the procedure:
Ninety minutes after injection, the mice were deeply anesthetized with sodium pentobarbital (50 mg/kg, intraperitoneally) and perfused transcardially. The brains were withdrawn, and c-Fos immunoreactivity was determined as described in [19, 20].
For the immunohistochemical study, the c-Fos rabbit monoclonal antibody (Cell Signaling Technology, #2250S) detecting total level of endogenous c-Fos protein was used in final dilution (1:2000) for 48 h (4°C).

Setting [4] is: average of the single experiments.
[5] abbreviates: average of the single experiments, read-out: Activation of bla reporter gene in GPR10 overexpressing cells, EC50, AVERAGE.

Each structure is given as a SMILES string. Where “and” joins values, the source holds several entries; their conditions need not be identical. Equal values may be shown once. Read-outs that look alike come from different tables or passages of the source. Starred links: 1 amine or outer side, 2 acyl side, 3 side chain; linkers in the order of their positions; H or OH if unused. Residues, ends and D or L forms follow the SMILES beside them. Groups on a side chain read outwards from the residue. *: point of attachment. TTDA(Palmitoyl) = CCCCCCCCCCCCCCCC(=O)NCCCOCCOCCOCCCN*; γGlu = O=C(O)[C@H](CCC(=O)[*:2])N[*:1]; Palmitoyl = CCCCCCCCCCCCCCCC(=O)*; Suc = O=C(CCC(=O)[*:2])[*:1]

T1 sequence (Q9Y5X5 whole entry): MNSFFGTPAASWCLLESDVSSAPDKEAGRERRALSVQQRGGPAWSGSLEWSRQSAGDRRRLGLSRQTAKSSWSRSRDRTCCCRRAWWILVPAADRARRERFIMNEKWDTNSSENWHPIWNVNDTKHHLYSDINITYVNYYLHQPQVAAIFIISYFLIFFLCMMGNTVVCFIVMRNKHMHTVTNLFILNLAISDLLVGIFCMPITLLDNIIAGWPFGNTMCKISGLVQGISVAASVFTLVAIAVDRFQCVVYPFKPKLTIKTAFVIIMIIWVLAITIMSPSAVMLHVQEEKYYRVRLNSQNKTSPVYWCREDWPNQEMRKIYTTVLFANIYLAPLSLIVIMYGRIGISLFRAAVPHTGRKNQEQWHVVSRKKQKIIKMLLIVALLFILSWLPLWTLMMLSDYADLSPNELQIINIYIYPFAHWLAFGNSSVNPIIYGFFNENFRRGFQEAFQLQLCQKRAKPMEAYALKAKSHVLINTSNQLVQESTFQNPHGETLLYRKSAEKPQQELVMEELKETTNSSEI

Regarding `CCCCCCCCCCCCCCCC(=O)NCCCOCCOCCOCCCNC(=O)CCC(=O)NCCCC[C@H](NC(=O)[C@@H](NC(=O)[C@H](CCC(=O)O)NC(=O)[C@H](CCSC)NC(=O)[C@H](CO)NC(=O)[C@H](Cc1c[nH]cn1)NC(=O)[C@H](CCCNC(=N)N)NC(=O)[C@H](Cc1c[nH]cn1)NC(=O)[C@@H](NC(=O)[C@H](CCCNC(=N)N)NC(=O)[C@@H](N)CO)[C@@H](C)O)[C@@H](C)CC)C(=O)N[C@H](C(=O)N1CCC[C@H]1C(=O)N[C@@H](CC(=O)O)C(=O)N[C@H](C(=O)N[C@@H](CC(N)=O)C(=O)N1CCC[C@H]1C(=O)N[C@@H](C)C(=O)N[C@@H](Cc1c[nH]c2ccccc12)C(=O)N[C@@H](Cc1ccc(O)cc1)C(=O)N[C@@H](C)C(=O)N[C@@H](CO)C(=O)N[C@@H](CCCNC(=N)N)C(=O)NCC(=O)N[C@H](C(=O)N[C@@H](CCCNC(=N)N)C(=O)N1CCC[C@H]1C(=O)N[C@H](C(=O)NCC(=O)N[C@@H](CCCNC(=N)N)C(=O)N[C@@H](Cc1ccccc1)C(N)=O)C(C)C)[C@@H](C)CC)[C@@H](C)CC)[C@@H](C)O` [analog 2] (H-SRTHRHSMEIK([Suc-TTDA(Palmitoyl)])TPDINPAWYASRGIRPVGRF-NH2; N-terminus assumed), the “% binding human PrRP31 (NPFF2)” value on human NPFF2 stood at 761%. The Ki at human NPFF2 (setting [4]) stood at 6.57 nM. The “Food intake compared to the saline-treated control group” value in assay [1] is recorded as “significantly reduced”. In addition, the EC50 at GPR10 [2] (setting [5]) was 0.0835 nM. For the same molecule, on GPR10 [3], the affinity, expressed as Ki, was 3.79 ± 0.47 nM; the “% binding human PrRP31 (GPR10)” value stood at 121%; the “125I-human PrRP31 binding to human GPR10, Ki” value (“125I-human PrRP31 binding” for short) was 4.698 nM and 3.31 nM and 3.352 nM.

In the case of `CCCCCCCCCCCCCCCC(=O)N[C@@H](CCC(=O)NCCCC[C@H](NC(=O)[C@@H](NC(=O)[C@H](CCC(=O)O)NC(=O)[C@H](CCSC)NC(=O)[C@H](CO)NC(=O)[C@H](Cc1c[nH]cn1)NC(=O)[C@H](CCCNC(=N)N)NC(=O)[C@H](Cc1c[nH]cn1)NC(=O)[C@@H](NC(=O)[C@H](CCCNC(=N)N)NC(=O)[C@@H](N)CO)[C@@H](C)O)[C@@H](C)CC)C(=O)N[C@H](C(=O)N1CCC[C@H]1C(=O)N[C@@H](CC(=O)O)C(=O)N[C@H](C(=O)N[C@@H](CC(N)=O)C(=O)N1CCC[C@H]1C(=O)N[C@@H](C)C(=O)N[C@@H](Cc1c[nH]c2ccccc12)C(=O)N[C@@H](Cc1ccc(O)cc1)C(=O)N[C@@H](C)C(=O)N[C@@H](CO)C(=O)N[C@@H](CCCNC(=N)N)C(=O)NCC(=O)N[C@H](C(=O)N[C@@H](CCCNC(=N)N)C(=O)N1CCC[C@H]1C(=O)N[C@H](C(=O)NCC(=O)N[C@@H](CCCNC(=N)N)C(=O)N[C@@H](Cc1ccccc1)C(N)=O)C(C)C)[C@@H](C)CC)[C@@H](C)CC)[C@@H](C)O)C(=O)O` [analog 1] (H-SRTHRHSMEIK([γGlu-Palmitoyl])TPDINPAWYASRGIRPVGRF-NH2; N-terminus assumed), at human NPFF2, the “% binding human PrRP31 (NPFF2)” value was 128%. The same molecule returned a Ki at human NPFF2 (membranes of CHO-K1 cells overexpressing NPFF2, 0.1 nM radioligand, Cheng-Prusoff, mean ± SEM, SEM) of 39.1 ± 23.1 nM. In addition, in assay [1], the “Food intake compared to the saline-treated control group” value is “did not reach statistical significance”. Besides, the “c-Fos immunoreactivity in Arc, PVN and DMN” value in the assay on c-Fos is “significant increase”. Besides, the concentration giving a half-maximal response (EC50) on GPR10 [2] (setting [5]) is 0.0463 nM. Moreover, at GPR10 [3], affinity was put at a Ki of 5.01 ± 1.03 nM; the “% binding human PrRP31 (GPR10)” value worked out at 91%; the “125I-human PrRP31 binding” value is 9.92 nM and 5.47 nM and 4.23 nM and 3.01 nM and 1.75 nM and 3.77 nM and 6.96 nM.

With `CCCCCCCCCCCCCCCC(=O)NCCCOCCOCCOCCCNC(=O)CCC(=O)NCCCC[C@H](NC(=O)[C@@H](NC(=O)[C@H](CCC(=O)O)NC(=O)[C@H](CCSC)NC(=O)[C@H](CO)NC(=O)[C@H](Cc1c[nH]cn1)NC(=O)[C@H](CCCNC(=N)N)NC(=O)[C@H](Cc1c[nH]cn1)NC(=O)[C@@H](NC(=O)[C@H](CCCNC(=N)N)NC(=O)[C@H](CO)NC(=O)CCC(=O)NCCCOCCOCCOCCCNC(=O)CCCCCCCCCCCCCCC)[C@@H](C)O)[C@@H](C)CC)C(=O)N[C@H](C(=O)N1CCC[C@H]1C(=O)N[C@@H](CC(=O)O)C(=O)N[C@H](C(=O)N[C@@H](CC(N)=O)C(=O)N1CCC[C@H]1C(=O)N[C@@H](C)C(=O)N[C@@H](Cc1c[nH]c2ccccc12)C(=O)N[C@@H](Cc1ccc(O)cc1)C(=O)N[C@@H](C)C(=O)N[C@@H](CO)C(=O)N[C@@H](CCCNC(=N)N)C(=O)NCC(=O)N[C@H](C(=O)N[C@@H](CCCNC(=N)N)C(=O)N1CCC[C@H]1C(=O)N[C@H](C(=O)NCC(=O)N[C@@H](CCCNC(=N)N)C(=O)N[C@@H](Cc1ccccc1)C(N)=O)C(C)C)[C@@H](C)CC)[C@@H](C)CC)[C@@H](C)O` [analog 3] ({TTDA(Palmitoyl)-Suc}-SRTHRHSMEIK([Suc-TTDA(Palmitoyl)])TPDINPAWYASRGIRPVGRF-NH2), the “% binding human PrRP31 (NPFF2)” value on human NPFF2 is reported as 580%. This molecule returned a Ki on human NPFF2 (setting [4]) of 8.63 nM. The “Food intake compared to the saline-treated control group” value in assay [1] is “did not have any significant effects”. The EC50 on GPR10 [2] (CHO-K1 cells, mean ± SEM of at least three experiments, SEM, read-out: Activation of bla reporter gene in GPR10 overexpressing cells, EC50) amounted to 0.284 ± 0.054 nM. For the same molecule, on GPR10 [3], the affinity, expressed as Ki, was 32.4 ± 3.57 nM; the “% binding human PrRP31 (GPR10)” value was 14%; the “125I-human PrRP31 binding” value is 39 nM and 26.7 nM and 31.5 nM.

The Ki is the equilibrium dissociation constant of an inhibitor or competing ligand from its target. Higher therefore signals weaker binding. Broadly, the EC50 is the concentration needed to bring the measured effect to its halfway point.
